Source: patent EP0133795B1 (THE McLEAN HOSPITAL CORPORATION, priority 1983, dated 1985)

Columns and labels:
[1] = Comparative brain/liver uptake of 14C-labeled compounds (Brain Penetration Index)
Experimental: The criterion used herein for measuring the extent to which a compound, from which the radical A is derived, crosses the blood-brain barrier is based on the uptake of this compound by the brain relative to its uptake by the liver. […] Measurements of the quantity of a compound present in brain and liver at 5 minutes after a subcutaneous (s.c.) injection were used to calculate a Brain Penetration Index (BPI), with the equation: [formula]
This is the amount of the compound present per gram of brain tissue as a percent of the amount per gram of liver tissue.
This procedure has the advantage that even for a sparingly soluble lipid ester, which tends to remain largely at the site of the injection and slowly diffuse into the circulation, its level in the liver will reflect the amount available rather than the initial dose injected.
The uptake of a ^14C-labeled compound into brain was compared with the uptake into liver of the same animal.
All determinations were carried out at 5 min after injection. The volumes of the injected doses into mice (body weight, 18-24 g) for the i.v., i.p., and s.c. doses were 0.15, 0.3 and 0.5 ml, respectively. […] Each tissue was homogenized in 8 ml of pyridine in a glass homogenizer.
Each labeled test compound was injected as a solution in 0.5 ml of saline (Compound 7) or in 25% propylene glycol in water (Compounds 1, 5, 6) subcutaneously (s.c.) into young adult Balb/c mice (18-24 g body weight). After 5 min (or longer) animals were sacrificed and the brain and liver removed, weighed and homogenized respectively in 8 ml and 10 ml of brain protein solvent (1 % (w/v) sodium dodecyl sulfate in 6 M urea and 19 mM EDTA, pH 7.4, 0.03 M phosphate). Aliquots (0.5 ml) of the homogenates were mixed with 10 ml of Aquasol 2 (New England Nuclear) and counted in a Beckman liquid scintillation counter. The total uptake of each compound per g brain and liver tissue was calculated. The proportion of uptake into brain as compared to liver (100%) of the same animal was designated as the Brain Penetration Index (BPI), expressed as a percentage typically at 5 min after injection.
Each of the ^14C-labeled Compounds 26, 28 and 30 were in 125 µl of the propylene glycol diluted with water up to 0.5 ml, and then injected subcutaneously into test Balb/c mice (20 ± 2 g weight). After 5 min the animals were sacrificed and the brain and liver were removed, weighed and homogenized in 8 ml and 10 ml of brain protein solvent, respectively. Next 0.5 ml aliquots were mixed with 10 ml of Aquasol 2 (New England Nuclear Corp., Boston, MA) and counted in a Beckman liquid scintillation counter. The data for the label in each tissue were used to calculate the total quantity of the compound present in brain and liver per gram of tissue. The ratio of the amount in brain as a percent of that present in liver at 5 min was taken as the Brain Penetration Index (BPI). Measurements at longer uptake times were also obtained to evaluate the accumulation of the compounds in the brain.

[2] = test system: general motor activity of mice; assay: General locomotor activity of mice (Stoelting electronic activity monitor); assay type: in vivo, Balb/c mice
Experimental: The effect of intraperitoneal (i.p.) injections of test compounds on the general motor activity of mice during a 60-min period was determined in a Stoelting electronic activity monitor. Dose-response curves were obtained from which the half-maximally effective values were calculated and the results are shown in Table V.
The compounds were dissolved in 25% (vols.) propylene glycol in water and injected i.p. into Balb/c mice (18-24 g). Dose-response measurements were obtained for 6 animals per dose or time point. Activity was monitored for 60 min using a Stoelting Electronic Activity Monitor (EAM) apparatus to assess the general motor activity of the animals.
The general locomotor activity of mice was measured in the Stolting activity monitor apparatus during 60 min after an intraperitoneal (i.p.) injection of a test compound.

[3] = test system: bicuculline-induced epileptic seizures; assay: Delay of onset of bicuculline-induced seizures (anticonvulsant activity); assay type: in vivo, mouse; conditions: graded 0-5
Experimental: In a second behavioral test, the ability of a substance to prevent or delay the onset of biculline-induced epileptic seizures was measured. […] At 24 hr after i.p. injection of the cholesteryl derivative at a dose of 30 mg/kg (64 pmol/kg), the onset of seizures was delayed by 30% after an acute i.p. injection of bicuculline at 0.3 mg/kg. […] The dexamethasone and butyl esters had no effect.
The compounds were also injected i.p. at 1, 6 and 24 hr before the administration of bicuculline (0.3 mg/kg) s.c. The latency to the onset of generalized tonic-clonic epileptic seizures and the protection against the lethality of bicuculline were measured and evaluated as a percent of the data for vehicle-injected controls. No significant changes were obtained at the 1 hr and 6 hr time points. At the 24 hr time, however, some compounds delayed while others accelerated the onset of seizures.
The effect of the compound to delay the onset of a bicuculline-induced seizures was evaluated.
The ability of a substance to delay the onset of bicuculline-induced epileptic seizures in the mouse was measured (Table X). […] At 24 hr after i.p. injection of the cholesteryl derivative (6) at a dose of 30 mg/kg (64 pmol/kg), the onset of seizures was delayed by 30% (as compared to saline controls) after an acute i.p. injection of bicuculline at 0.3 mg/kg. […] The dexamethasone and butyl esters had no effect on seizures in mice.

[4] = test system: CAI pyramidal cells; assay type: cell-based, Sprague-Dawley rats
Experimental: Transverse slices of hippocampus (350-375 µm thick) were prepared from Sprague-Dawley rats (200-300 g) and transferred onto a nylon net fixed over a 1.5 ml superfusion chamber. The slices were maintained at 32-33°C in a humidified atmosphere of 95%/5% 02/C02. The standard medium consisted of (in mM): NaCl, 125; KCI, 3.5; CaC12,2; MgS04, 1.5; NaH2PO4, 1; NaHC03, 24; and glucose, 10. Low chloride medium was prepared by substituting sodium isethionate for sodium chloride.
Extracellular potentials were recorded with NaCI-fitted micropipettes, and stimulus pulses were applied through bipolar platinum wire electrodes. The various drugs were dissolved in fresh medium (without glucose and phosphate) and applied to the surface of the tissue by pressure ejection from a micropipette, Sakai, Swartz and Woody, (1979).
The inhibitory effectiveness of various compounds was investigated by measuring their ability to suppress the extracellular population spike recorded from the hippocampal CAI pyramidal layer and elicited by stimulation of stratum radiatum axons. The amplitude of this monosynaptic population spike is essentially proportional to the number of pyramidal cells discharging in response to a stimulus volley, Andersen, Bliss and Skrede, (1971).
The various compounds were applied as droplets to the pyramidal layer approximately 75 µm from the recording electrode. The volume of a single drug application was about 300 picoliters. […] The volume ejected from each pipette was calibrated prior to use by measuring the diameter of the ejected droplet and adjusting the duration of the pressure pulse (usually 100-500 msec) until a standard diameter was reached. A constant droplet volume was used throughout the experiments. Where dose-response information was required, several pipettes with different drug concentrations were used.

[5] = test system: general motor activity of mice; assay: General locomotor activity of mice (Stoelting electronic activity monitor); assay type: in vivo, Balb/c mice; conditions: 500 µg administered intracisternally directly into the cerebrospinal fluid
[6] = test system: general motor activity; conditions: systemically injected doses of up to 1 g/kg (9.7 mmol/kg); previous experiments; cited from earlier work
[7] = Table VI, 270 μmol/kg s.c., 5 min, Balb/c mice

NCCCC(=O)O [GABA, gamma-aminobutyric acid, reference compound]
(BRAIN) ([1]; 30 μmol/kg i.v., 5 min, mouse): 0.04 nmol/g
(LIVER) ([1]; 30 μmol/kg i.v., 5 min, mouse): 4.2 nmol/g
BPI (5 min) ([1]; 30 μmol/kg i.v., 5 min, mouse): 0.95%
(BRAIN) ([1]; 60 μmol/kg i.p., 5 min, mouse): 0.23 nmol/g
(LIVER) ([1]; 60 μmol/kg i.p., 5 min, mouse): 29 nmol/g
BPI (5 min) ([1]; 60 μmol/kg i.p., 5 min, mouse): 0.80%
(BRAIN) ([1]; 120 μmol/kg i.p., 5 min, mouse): 0.45 nmol/g
(LIVER) ([1]; 120 μmol/kg i.p., 5 min, mouse): 46 nmol/g
BPI (5 min) ([1]; 120 μmol/kg i.p., 5 min, mouse): 1.00%
(BRAIN) ([1]; 160 μmol/kg i.p., 5 min, mouse): 0.66 nmol/g
(LIVER) ([1]; 160 μmol/kg i.p., 5 min, mouse): 71 nmol/g
BPI (5 min) ([1]; 160 μmol/kg i.p., 5 min, mouse): 0.93%
(BRAIN) ([1]; 210 μmol/kg i.p., 5 min, mouse): 0.83 nmol/g
(LIVER) ([1]; 210 μmol/kg i.p., 5 min, mouse): 83 nmol/g
BPI (5 min) ([1]; 210 μmol/kg i.p., 5 min, mouse): 1.00%
(BRAIN) ([1]; 270 μmol/kg s.c., 5 min, mouse): 1.03 nmol/g
(LIVER) ([1]; 270 μmol/kg s.c., 5 min, mouse): 104 nmol/g
BPI (5 min) ([1]; 270 μmol/kg s.c., 5 min, mouse): 1.00%
(BRAIN) ([1]; 380 μmol/kg s.c., 5 min, mouse): 1.81 nmol/g
(LIVER) ([1]; 380 μmol/kg s.c., 5 min, mouse): 165 nmol/g
BPI (5 min) ([1]; 380 μmol/kg s.c., 5 min, mouse): 1.10%
BPI ([1]; Table IX summary, 5-min Brain Penetration Index): 1
(BRAIN) [1, 7]: 1.03 nmol/g
(LIVER) [1, 7]: 104 nmol/g
BPI ([1]; Table VI, 270 μmol/kg s.c., 5 min, Balb/c mice, mean ± S.E.M.): 1±.09%
effect on general motor activity ([2]; 1.94 mmol/kg, i.p.): no significant effect
effect on general locomotor activity ([2]; dose of 9.7 mmol/kg (1 g/kg)): no significant effect
In Vivo Delay of Time of Onset of Bicuculline-induced seizures [3]: 0
effect after incubation of slices in PMSF (0.5 mM) for about 45 min [4]: no change
effect with picrotoxin (10 µM) in the medium or low chloride medium [4]: little effect
recovery of the population spike amplitude to 90% of the pre-droplet control value ([4]; after an approximately half-maximal dose): 1 to 2 min
time until recovery was usually complete ([4]; after droplet application): 2 to 3 min
effect on general motor activity [5]: no significant effect
effect on motor activity in rats [6]: little effect
